According to patent US10316070B2, “Dual protected pro-coelenterazine substrates” (PROMEGA CORPORATION, priority 2016, dated 2019):

Tested on: thermal stable β-glucosidase
Experiment: Glucosidase assay: light output of furimazine mono- or bis-glucoside pro-substrate with Nanoluc, with and without β-glucosidase
Type: biochemical
Settings: for Background RLU: without β-glucosidase, Nanoluc; for Signal to Background: β-glucosidase vs no β-glucosidase
Procedure: To the solution of 50 μl of furimazine mono- or bis-glucoside compound (100 μM) in NanoGlo buffer and 50 μl of NanoGlo buffer containing 1 ng/mL Nanoluc was added 11 μl of thermal stable β-glucosidase (Sigma) in PBS with final concentration of 1 Unit/ml/μM, and the light output was measured over time. The background of pro-substrate was measured under same condition without β-glucosidase.
The synthesized coelenterazine analogues (compounds of formula (I)) were evaluated for their background and signal/background ratio.

Compound	Background RLU (Time 0 hr)	Signal to Background (Time 0 hr)	Background RLU (Time 0.1 hr)	Signal to Background (Time 0.1 hr)	Background RLU (Time 0.25 hr)	Signal to Background (Time 0.25 hr)	Background RLU (Time 0.5 hr)	Signal to Background (Time 0.5 hr)	Background RLU (Time 1 hr)	Signal to Background (Time 1 hr)	Background RLU (Time 1.5 hr)	Signal to Background (Time 1.5 hr)	Background RLU (Time 2 hr)	Signal to Background (Time 2 hr)	Background RLU (Time 3 hr)	Signal to Background (Time 3 hr)	Background RLU (Time 4 hr)	Signal to Background (Time 4 hr)	Background RLU (Time 5 hr)	Signal to Background (Time 5 hr)	other results
OCC1OC(Oc2ccc(COc3c(Cc4ccco4)nc4c(Cc5ccccc5)nc(-c5ccccc5)cn34)cc2)C(O)C(O)C1O [WZ-0246, β-D-glucose Benzyl Furimazine]	10,028 RLU	3,235	10,884 RLU	2,915	12,298 RLU	2,426	13,047 RLU	2,193	18,529 RLU	1,172	20,751 RLU	926	24,489 RLU	627	29,692 RLU	385	33,514 RLU	264	37,181 RLU	210	Background RLU (Time 6 hr): 40,543 RLU; Signal to Background (Time 6 hr): 157; Background RLU (Time 16 hr): 23,092 RLU; Signal to Background (Time 16 hr): 36
OCC1OC(Oc2ccc(COc3c(Cc4ccco4)nc4c(Cc5ccccc5)nc(-c5ccc(OC6OC(CO)C(O)C(O)C6O)cc5)cn34)cc2)C(O)C(O)C1O [WZ-0262, bis-(β-D-glucose) Benzyl Furimazine]	87 RLU	340,753	39 RLU	134,646	32 RLU	73,734	21 RLU	58,191	26 RLU	21,501	26 RLU	12,822	20 RLU	11,569	14 RLU	11,041	25 RLU	5,297	26 RLU	4,585	background signal (in words) (FIG. 1, Tables 1 and 2): close to instrument noise; Background RLU (Time 6 hr): 22 RLU; Signal to Background (Time 6 hr): 5,060; Background RLU (Time 16 hr): 26 RLU; Signal to Background (Time 16 hr): 2708; signal-to-background ratio, fold higher than the corresponding mono-protected analogue (at the initial time point): ~100 fold; signal-to-background ratio (in words) (compared to mono-protected analogues WZ-0261 and WZ-0246): significantly higher; background, fold lower than the corresponding mono-protected analogue WZ-0246 (vs WZ-0246): ~200 fold
